Assay results reported in patent US6358947B1 (American Home Products Corporation, priority 1999, dated 2002).

Key:
Type in all cases: cell-based
hMR = target: T1, hMR (Homo sapiens, UniProt P08235); assay: Cotransfection assay, MR antagonist; details: read-out: MR Potency Antag
T1 sequence (P08235 1-984): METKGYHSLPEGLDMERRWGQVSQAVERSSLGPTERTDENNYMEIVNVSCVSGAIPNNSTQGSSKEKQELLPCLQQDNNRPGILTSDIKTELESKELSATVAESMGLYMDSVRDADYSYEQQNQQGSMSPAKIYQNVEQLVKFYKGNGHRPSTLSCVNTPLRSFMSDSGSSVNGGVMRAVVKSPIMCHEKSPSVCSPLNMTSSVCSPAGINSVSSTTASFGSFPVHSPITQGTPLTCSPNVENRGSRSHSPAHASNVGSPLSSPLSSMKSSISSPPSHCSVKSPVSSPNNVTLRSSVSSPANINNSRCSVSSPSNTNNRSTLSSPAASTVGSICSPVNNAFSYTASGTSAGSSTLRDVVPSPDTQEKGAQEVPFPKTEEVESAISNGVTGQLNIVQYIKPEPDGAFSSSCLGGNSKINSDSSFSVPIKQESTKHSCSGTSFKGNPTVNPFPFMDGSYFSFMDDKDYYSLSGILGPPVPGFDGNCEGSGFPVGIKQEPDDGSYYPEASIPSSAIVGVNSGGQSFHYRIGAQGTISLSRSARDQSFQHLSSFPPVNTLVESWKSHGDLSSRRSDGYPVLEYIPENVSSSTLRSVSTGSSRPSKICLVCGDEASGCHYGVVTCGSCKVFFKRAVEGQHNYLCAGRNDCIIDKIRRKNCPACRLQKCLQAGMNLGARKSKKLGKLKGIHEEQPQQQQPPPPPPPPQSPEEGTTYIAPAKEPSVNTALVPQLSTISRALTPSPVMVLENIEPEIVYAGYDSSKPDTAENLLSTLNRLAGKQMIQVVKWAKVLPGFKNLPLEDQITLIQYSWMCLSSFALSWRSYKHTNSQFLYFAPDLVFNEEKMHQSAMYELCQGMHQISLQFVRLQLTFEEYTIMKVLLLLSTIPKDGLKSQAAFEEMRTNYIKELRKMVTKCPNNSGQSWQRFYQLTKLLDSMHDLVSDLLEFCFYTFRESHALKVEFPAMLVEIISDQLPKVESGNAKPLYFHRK
Excerpt: (§1) The cotransfection assay provides a method for identifying functional agonists and partial agonists that mimic, or antagonists that inhibit, the effect of native hormones, and for quantifying their activity for responsive intracellular receptor (IR) proteins. In this regard, the cotransfection assay mimics an in vivo system in the laboratory. Importantly, activity in the cotransfection assay correlates very well with known in vivo activity, such that the cotransfection assay functions as a qualitative and quantitative predictor of a tested compound's in vivo pharmacology.
(§2) In the cotransfection assay, a cloned cDNA for an IR (e.g., human PR, AR or GR) under the control of a constitutive promoter (e.g., the SV 40 promoter) is introduced by transfection (a procedure to induce cells to take up foreign genes) into a background cell substantially devoid of endogenous IRs. This introduced gene directs the recipient cells to make the IR protein of interest. A second gene is also introduced (cotransfected) into the same cells in conjunction with the IR gene. This second gene, comprising the cDNA for a reporter protein, such as firefly luciferase (LUC), is controlled by an appropriate hormone responsive promoter containing a hormone response element (HRE). This reporter plasmid functions as a reporter for the transcription-modulating activity of the target IR. Thus, the reporter acts as a surrogate for the products (mRNA, then protein) normally expressed by a gene under control of the target receptor and its native hormone.
(§3) The cotransfection assay can detect small molecule agonists or antagonists of target IRs. Exposing the transfected cells to an agonist ligand compound increases reporter activity in the transfected cells. This activity can be conveniently measured, e.g., by increasing luciferase production, which reflects compound-dependent, IR-mediated increases in reporter transcription. […] Increasing concentrations of a suspected antagonist will decrease the reporter signal (e.g., luciferase production). The cotransfection assay is therefore useful to detect both agonists and antagonists of specific IRs. Furthermore, it determines not only whether a compound interacts with a particular IR, but whether this interaction mimics (agonizes) or blocks (antagonizes) the effects of the native regulatory molecules on target gene expression, as well as the specificity and strength of this interaction.

hER = target: T2, hER (Homo sapiens, UniProt P03372); assay: Cotransfection assay, ER antagonist; details: read-out: ER Potency Antag
T2 sequence (P03372 1-595): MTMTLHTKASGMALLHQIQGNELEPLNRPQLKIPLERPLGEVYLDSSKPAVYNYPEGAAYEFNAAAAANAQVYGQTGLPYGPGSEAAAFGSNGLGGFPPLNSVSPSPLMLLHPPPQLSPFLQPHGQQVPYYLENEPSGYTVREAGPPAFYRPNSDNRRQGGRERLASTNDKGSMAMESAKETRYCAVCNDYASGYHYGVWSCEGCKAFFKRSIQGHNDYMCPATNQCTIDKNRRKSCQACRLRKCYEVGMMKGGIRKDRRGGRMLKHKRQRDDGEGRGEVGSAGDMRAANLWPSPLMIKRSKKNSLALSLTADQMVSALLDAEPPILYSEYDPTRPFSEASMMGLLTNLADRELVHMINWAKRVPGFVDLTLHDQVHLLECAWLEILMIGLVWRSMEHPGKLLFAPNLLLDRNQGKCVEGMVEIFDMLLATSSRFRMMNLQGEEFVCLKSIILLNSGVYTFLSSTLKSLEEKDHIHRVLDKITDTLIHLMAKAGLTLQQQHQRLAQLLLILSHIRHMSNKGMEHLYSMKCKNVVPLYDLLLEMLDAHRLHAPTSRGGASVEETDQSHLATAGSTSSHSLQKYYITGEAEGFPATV
Excerpt: as §1, §2, §3

hAR = target: T3, hAR (Homo sapiens, UniProt P10275); assay: Cotransfection assay, AR agonist; details: read-out: AR Potency Agon
T3 sequence (P10275 1-920): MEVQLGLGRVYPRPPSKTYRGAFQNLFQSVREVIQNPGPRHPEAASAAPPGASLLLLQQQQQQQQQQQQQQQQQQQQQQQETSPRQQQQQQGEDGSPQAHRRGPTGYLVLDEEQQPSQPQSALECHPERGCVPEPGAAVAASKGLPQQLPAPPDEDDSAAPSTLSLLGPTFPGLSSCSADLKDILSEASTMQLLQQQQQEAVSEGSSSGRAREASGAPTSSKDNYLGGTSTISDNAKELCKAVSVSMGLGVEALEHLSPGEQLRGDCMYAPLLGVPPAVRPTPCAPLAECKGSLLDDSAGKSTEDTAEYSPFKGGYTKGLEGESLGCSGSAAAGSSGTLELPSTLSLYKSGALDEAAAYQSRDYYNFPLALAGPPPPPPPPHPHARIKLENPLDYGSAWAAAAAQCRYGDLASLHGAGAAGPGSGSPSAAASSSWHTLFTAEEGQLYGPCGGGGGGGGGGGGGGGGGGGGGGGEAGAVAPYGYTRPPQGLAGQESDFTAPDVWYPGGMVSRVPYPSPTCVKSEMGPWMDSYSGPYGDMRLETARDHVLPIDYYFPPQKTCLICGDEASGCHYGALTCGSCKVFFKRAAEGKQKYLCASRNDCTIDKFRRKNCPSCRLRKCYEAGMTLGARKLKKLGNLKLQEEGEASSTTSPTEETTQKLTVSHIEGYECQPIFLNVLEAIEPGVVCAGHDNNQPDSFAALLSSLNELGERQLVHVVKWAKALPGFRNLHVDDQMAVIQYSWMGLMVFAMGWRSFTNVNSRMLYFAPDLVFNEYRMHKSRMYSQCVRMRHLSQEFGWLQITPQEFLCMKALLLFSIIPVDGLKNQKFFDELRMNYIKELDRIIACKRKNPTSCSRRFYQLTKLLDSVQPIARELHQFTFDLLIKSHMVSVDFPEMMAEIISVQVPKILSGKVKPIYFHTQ
Excerpt: as §1, §2, §3

CC1(C)OC(=O)Nc2ccc3c(c21)COc1c(F)cc(C=NO)cc1-3 [Compound 25, 7-fluoro-9-hydroxyiminomethyl-4,4-dimethyl-5H-chromeno[3,4-f]-1,3-benzo[d]oxazin-2-one]
> 10 µM: IC50 (hMR) | IC50 (hER) | EC50 (hAR)

CC1(C)OC(=O)Nc2ccc3c(c21)COc1c(F)cc(Br)cc1-3 [Compound 20, 9-Bromo-7-fluoro-4,4-dimethyl-5H-chromeno[3,4-f]-1,3-benzo[d]oxazin-2-one]
> 10 µM: IC50 (hMR) | IC50 (hER) | EC50 (hAR)

CC1(C)OC(=O)Nc2ccc3c(c21)COc1c(F)cccc1-3 [Compound 14, 7-Fluoro-4,4-dimethyl-5H-chromeno[3,4-f]-1,3-benzo[d]oxazin-2-one]
> 10 µM: IC50 (hMR) | IC50 (hER) | EC50 (hAR)

CC1(C)OC(=O)Nc2ccc3c(c21)COc1c(F)cc(C#N)cc1-3 [Compound 26, 9-cyano-7-fluoro-4,4-dimethyl-5H-chromeno[3,4-f]-1,3-benzo[d]oxazin-2-one]
> 10 µM: IC50 (hMR) | IC50 (hER) | EC50 (hAR)

CC1(C)OC(=O)Nc2ccc3c(c21)COc1c(F)cc(C=O)cc1-3 [Compound 24, 7-fluoro-9-formyl-4,4-dimethyl-5H-chromeno[3,4-f]-1,3-benzo[d]oxazin-2-one]
> 10 µM: IC50 (hMR) | IC50 (hER) | EC50 (hAR)
